Reference: US20050090529A1, “3,5 Disubstituted indazole compounds with nitrogen-bearing 5-membered heterocycles, pharmaceutical compositions, and methods for mediating or inhibiting cell proliferation” (PFIZER INC, priority 2003, published 2005)
In brackets after ≈: the same amount, converted by molar mass.

How the values were obtained:
CDK2/Cyclin A = biological target: T1, CDK2/Cyclin A (Homo sapiens, UniProt P24941); test: Inhibition of CDK2/Cyclin A retinoblastoma kinase activity (apparent Ki); format: biochemical; details: read-out: CDK2 Ki
T1 construct: made in house; host or cells: CDK2: insect cells (baculovirus); cyclin A: E. coli
Procedure: Cyclin-dependent kinase activity was measured by quantifying the enzyme-catalyzed, time-dependent incorporation of radioactive phosphate from [^32P]ATP or [^33P]ATP into a protein substrate. […] Reactions were initiated with enzyme, incubated at 30° C., and terminated after 20 minutes by the addition of ethylenediaminetetraacetic acid (EDTA) to 250 mM. […] Radioactivity was quantified by exposing the dried membranes to a phosphorimager.
Apparent Ki values were measured by assaying enzyme activity in the presence of different inhibitor compound concentrations and subtracting the background radioactivity measured in the absence of enzyme. Inhibition data were fit to an equation for competitive inhibition using Kaleidagraph (Synergy Software), or were fit to an equation for competitive tight-binding inhibition using the software KineTic (BioKin, Ltd.).
A complex of CDK2 and proteolyzed cyclin A was prepared and purified by gel filtration. […] Ki values were measured as described above.

[1] = Measurement of kinetic solubility; details: 100 mM sodium phosphate buffer, pH 6.5, aqueous buffer, kinetic from dmso stock
Procedure: Kinetic solubility was determined with a […] stock solution from the compound(s) of interest. […] Samples and standards were then centrifuged and an aliquot was removed for HPLC analysis. Samples and standards were analyzed by HPLC and a final concentration for the sample was determined based on a one-point calibration curve from the corresponding standard. Results were reported as μg's/mL.

Row | SMILES | Ki (CDK2/Cyclin A) [µM] | solubility [1] [µg/mL]
1 | CCNCc1cncc(-c2ccc3[nH]nc(-c4nc(C(=O)NC5CN6CCC5CC6)c[nH]4)c3c2)c1C (stereo in doubt) [Example 73, N-[(3S)-1-azabicyclo[2.2.2]oct-3-yl]-2-(5-{5-[(ethylamino)methyl]-4-methylpyridin-3-yl}-1H-indazol-3-yl)-1H-imidazole-5-carboxamide] | 0.05 to 0.2 | > 120
2 | CCNCc1cncc(-c2ccc3[nH]nc(-c4ncc[nH]4)c3c2)c1C [Example 1, 5-(5-ethylaminomethyl-4-methylpyridin-3-yl)-3-(1H-imidazol-2-yl)-1H-indazole] | < 0.05 | > 120
3 | CCNCc1cncc(-c2ccc3[nH]nc(-c4nc(-c5ccccc5)c(C(=O)NCC)[nH]4)c3c2)c1C [Example 2, 2-[5-(5-Ethylaminomethyl-4-methyl-pyridin-3-yl)-1H-indazol-3-yl]-5-phenyl-3H-imidazole-4-carboxylic acid ethylamide] | 0.05 to 0.2 | 20 to 120 (≈ 41.7 to 250 µM)
4 | CCNCc1cncc(-c2ccc3[nH]nc(-c4nc(-c5ccccc5)c(C(=O)NCCOC)[nH]4)c3c2)c1C [Example 3, 2-[5-(5-Ethylaminomethyl-4-methyl-pyridin-3-yl)-1H-indazol-3-yl]-5-phenyl-3H-imidazol-4-carboxylic acid (2-methoxy-ethyl)-amide] | 0.05 to 0.2 | 20 to 120 (≈ 39.2 to 235 µM)
5 | CCNCc1cncc(-c2ccc3[nH]nc(-c4nc(-c5ccccc5)c(C(=O)N5CCCC5)[nH]4)c3c2)c1C [Example 4, {2-[5-(5-Ethylaminomethyl-4-methyl-pyridin-3-yl)-1H-indazol-3-yl]-5-phenyl-3H-imidazol-4-yl}-pyrrolidin-1-yl-methanone] | 0.05 to 0.2 | 20 to 120 (≈ 39.6 to 237 µM)
6 | CCNCc1cncc(-c2ccc3[nH]nc(-c4nc(-c5ccccc5)c(C(=O)NCc5ccccc5)[nH]4)c3c2)c1C [Example 5, 2-[5-(5-Ethylaminomethyl-4-methyl-pyridin-3-yl)-1H-indazol-3-yl]-5-phenyl-3H-imidazole-4-carboxylic acid benzylamide] | < 0.05 | 20 to 120 (≈ 36.9 to 222 µM)
7 | CCNCc1cncc(-c2ccc3[nH]nc(-c4nc(-c5ccccc5)c(C(=O)NCC(C)C)[nH]4)c3c2)c1C [Example 7, 2-[5-(5-Ethylaminomethyl-4-methyl-pyridin-3-yl)-1H-indazol-3-yl]-5-phenyl-3H-imidazole-4-carboxylic acid isobutyl-amide] | 0.05 to 0.2 | 20 to 120 (≈ 39.4 to 236 µM)
8 | CCNCc1cncc(-c2ccc3[nH]nc(-c4nc(-c5ccccc5)c(C(=O)NC5CCCC5)[nH]4)c3c2)c1C [Example 8, 2-[5-(5-Ethylaminomethyl-4-methyl-pyridin-3-yl)-1H-indazol-3-yl]-5-phenyl-3H-imidazole-4-carboxylic acid cyclopentylamide] | 0.05 to 0.2 | 20 to 120 (≈ 38.5 to 231 µM)
9 | CCNCc1cncc(-c2ccc3[nH]nc(-c4nc(-c5ccccc5)c(C(=O)N5CCCCC5)[nH]4)c3c2)c1C [Example 9, {2-[5-(5-Ethylaminomethyl-4-methyl-pyridin-3-yl)-1H-indazol-3-yl]-5-phenyl-3H-imidazol-4-yl}-piperidin-1-yl-methanone] | > 0.2 | 20 to 120 (≈ 38.5 to 231 µM)
10 | CCNCc1cncc(-c2ccc3[nH]nc(-c4nc(-c5ccccc5)c(C(=O)N5CCOCC5)[nH]4)c3c2)c1C [Example 10, {2-[5-(5-Ethylaminomethyl-4-methyl-pyridin-3-yl)-1H-indazol-3-yl]-5-phenyl-3H-imidazol-4-yl}-morpholin-4-yl-methanone] | > 0.2 | 20 to 120 (≈ 38.3 to 230 µM)
11 | CCNCc1cncc(-c2ccc3[nH]nc(-c4nc(-c5ccccc5)c(C(=O)NCCCOC)[nH]4)c3c2)c1C [Example 11, 2-[5-(5-Ethylaminomethyl-4-methyl-pyridin-3-yl)-1H-indazol-3-yl]-5-phenyl-3H-imidazole-4-carboxylic acid (3-methoxy-propyl)-amide] | 0.05 to 0.2 | > 120
12 | CCNCc1cncc(-c2ccc3[nH]nc(-c4nc(-c5ccccc5)c(C(=O)N(C)C5CCCCC5)[nH]4)c3c2)c1C [Example 13, 2-[5-(5-Ethylaminomethyl-4-methyl-pyridin-3-yl)-1H-indazol-3-yl]-5-phenyl-3H-imidazole-4-carboxylic acid cyclohexyl-methyl-amide] | > 0.2 | 20 to 120 (≈ 36.5 to 219 µM)
13 | CCNCc1cncc(-c2ccc3[nH]nc(-c4nc(-c5ccccc5)c(C(=O)N5CCC[C@H]5COC)[nH]4)c3c2)c1C [Example 14, {2-[5-(5-Ethylaminomethyl-4-methyl-pyridin-3-yl)-1H-indazol-3-yl]-5-phenyl-3H-imidazol-4-yl}-(2-methoxymethyl-pyrrolidin-1-yl)-methanone] | > 0.2 | > 120
14 | CCNCc1cncc(-c2ccc3[nH]nc(-c4nc(-c5ccccc5)c(C(=O)N5CCC[C@@H]5COC)[nH]4)c3c2)c1C [Example 15, {2-[5-(5-Ethylaminomethyl-4-methyl-pyridin-3-yl)-1H-indazol-3-yl]-5-phenyl-3H-imidazol-4-yl}-(2-methoxymethyl-pyrrolidin-1-yl)-methanone] | > 0.2 | > 120
15 | CCCc1nc(-c2n[nH]c3ccc(-c4cncc(CNCC)c4C)cc23)[nH]c1C [Example 19, Ethyl-{4-methyl-5-[3-(5-methyl-4-propyl-1H-imidazol-2-yl)-1H-indazol-5-yl]-pyridin-3-ylmethyl}-amine] | < 0.05 | 20 to 120 (≈ 51.5 to 309 µM)
16 | CCNCc1cncc(-c2ccc3[nH]nc(-c4nc(CC(C)C)c(C)[nH]4)c3c2)c1C [Example 20, Ethyl-{5-[3-(4-isobutyl-5-methyl-1H-imidazol-2-yl)-1H-indazol-5-yl]-4-methyl-pyridin-3-ylmethyl}-amine] | < 0.05 | 20 to 120 (≈ 49.7 to 298 µM)
17 | CCNCc1cncc(-c2ccc3[nH]nc(-c4nc(CC)c(CC)[nH]4)c3c2)c1C [Example 22, {5-[3-(4,5-Diethyl-1H-imidazol-2-yl)-1H-indazol-5-yl]-4-methyl-pyridin-3-ylmethyl}-ethyl-amine] | < 0.05 | > 120
18 | CCNCc1cncc(-c2ccc3[nH]nc(-c4nc(CC)c(C)[nH]4)c3c2)c1C [Example 23, Ethyl-{5-[3-(4-ethyl-5-methyl-1H-imidazol-2-yl)-1H-indazol-5-yl]-4-methyl-pyridin-3-ylmethyl}-amine] | < 0.05 | > 120
19 | CCNCc1cncc(-c2ccc3[nH]nc(-c4nc(C)c(C)[nH]4)c3c2)c1C [Example 24, {5-[3-(4,5-Dimethyl-1H-imidazol-2-yl)-1H-indazol-5-yl]-4-methyl-pyridin-3-ylmethyl}-ethyl-amine] | < 0.05 | > 120
20 | CCNCc1cncc(-c2ccc3[nH]nc(-c4nc(-c5ccc(Cl)cc5)c(C)[nH]4)c3c2)c1C [Example 25, (5-{3-[4-(4-Chloro-phenyl)-5-methyl-1H-imidazol-2-yl]-1H-indazol-5-yl}-4-methyl-pyridin-3-ylmethyl)-ethyl-amine] | < 0.05 | 20 to 120 (≈ 43.8 to 263 µM)
21 | CCNCc1cncc(-c2ccc3[nH]nc(-c4nc(-c5cc(Cl)cc(Cl)c5)c(C)[nH]4)c3c2)c1C [Example 26, (5-{3-[4-(3,5-Dichloro-phenyl)-5-methyl-1H-imidazol-2-yl]-1H-indazol-5-yl}-4-methyl-pyridin-3-ylmethyl)-ethyl-amine] | < 0.05 | < 20
22 | CCNCc1cncc(-c2ccc3[nH]nc(-c4nc(-c5cccc(C(F)(F)F)c5)c(C)[nH]4)c3c2)c1C [Example 27, Ethyl-(4-methyl-5-{3-[5-methyl-4-(3-trifluoromethyl-phenyl)-1H-imidazol-2-yl]-1H-indazol-5-yl}-pyridin-3-ylmethyl)-amine] | < 0.05 | < 20
23 | CCNCc1cncc(-c2ccc3[nH]nc(-c4nc(-c5ccc(C(F)(F)F)cc5)c(C)[nH]4)c3c2)c1C [Example 28, Ethyl-(4-methyl-5-{3-[5-methyl-4-(4-trifluoromethyl-phenyl)-1H-imidazol-2-yl]-1H-indazol-5-yl}-pyridin-3-ylmethyl)-amine] | < 0.05 | 20 to 120 (≈ 40.8 to 245 µM)
24 | CCNCc1cncc(-c2ccc3[nH]nc(-c4nc(-c5ccccc5)c(C)[nH]4)c3c2)c1C [Example 29, Ethyl-{4-methyl-5-[3-(5-methyl-4-phenyl-1H-imidazol-2-yl)-1H-indazol-5-yl]-pyridin-3-ylmethyl}-amine] | < 0.05 | 20 to 120 (≈ 47.3 to 284 µM)
25 | CCNCc1cncc(-c2ccc3[nH]nc(-c4nc(-c5ccccc5)c[nH]4)c3c2)c1C [Example 30, Ethyl-{4-methyl-5-[3-(4-phenyl-1H-imidazol-2-yl)-1H-indazol-5-yl]-pyridin-3-ylmethyl}-amine] | < 0.05 | 20 to 120 (≈ 49 to 294 µM)
26 | CCNCc1cncc(-c2ccc3[nH]nc(-c4nc(-c5ccc(F)cc5)c[nH]4)c3c2)c1C [Example 31, Ethyl-(5-{3-[4-(4-fluoro-phenyl)-1H-imidazol-2-yl]-1H-indazol-5-yl}-4-methyl-pyridin-3-ylmethyl)-amine] | < 0.05 | 20 to 120 (≈ 46.9 to 281 µM)
27 | CCNCc1cncc(-c2ccc3[nH]nc(-c4nc(-c5cccc(F)c5)c[nH]4)c3c2)c1C [Example 32, Ethyl-(5-{3-[4-(3-fluoro-phenyl)-1H-imidazol-2-yl]-1H-indazol-5-yl}-4-methyl-pyridin-3-ylmethyl)-amine] | < 0.05 | > 120
